This is an account of results in patent US20250186545A1, “RECOMBINANT PROTEIN FOR ULCERATIVE COLITIS TREATMENT OR PREVENTION AND COMPOSITION FOR ULCERATIVE COLITIS TREATMENT OR PREVENTION CONTAINING THE SAME” (NEXEL CO., LTD., priority 2021, published 2025).

Type in all cases: in vivo, C57BL/6 mice
For assay [1], the system named is DSS-induced colitis model. Nature of the assay: Body weight change, study of FIG. 10 (FIG. 12, Tables 4 and 5). The settings on record: for Change of original weight: AD group. The text has this:
(§1) First, in the case of an animal model for mice in which ulcerative colitis is induced using DSS (Dextran sulfate sodium), bloody stool, weight loss, large intestinal shrinkage, and mucosal ulcers occur, and histologically, damage occurs in large intestinal epithelial cells, so that the intestinal glands of an epithelial layer fall off without inflammation. Further, the amount of f various immune substances in the mucosa increases to cause intestinal inflammation. For this reason, DSS has been widely used to create experimental animal models.
(§2) Specifically, in a DSS-induced colitis model in which 9-week-old female C57BL/6 mice were allowed to freely ingest 2% DSS, an experiment was conducted assuming that one C57BL/6 mouse ingested 5 ml of water containing 2% DSS per day.
(§3) For 7 days, only water containing 2% DSS without any treatment was provided to the mice, and for 5 days after the 7th day, water without 2% DSS was provided, and simultaneously, various comparative substances, including NP-011 protein, were fed at various concentrations by injection into the caudal vein, thereby creating an animal model of inducing ulcerative colitis.
Lastly, as shown in FIG. 6 and FIG. 10, a third experimental group ‘NP-011’ that is an experimental group was supplied with only water containing 2% DSS from day 0 to day 7, was supplied with plain water from day 7 to day 14, […] for 5 days starting from day 7, a total of 5 times.
In addition, increase or decrease in body weight was analyzed on the basis of the original body weight, and the level of weight increase or decrease compared with the positive control group was also analyzed.

Assay [2] concerns DSS-induced colitis model. Nature of the assay: Histopathology (H&E) of large intestinal mucosa: erosion and epithelial hyperplasia; study of FIG. 10.
Excerpt: as §1, §2, §3
(§4) Lastly, as shown in FIG. 6 and FIG. 10, a third experimental group ‘NP-011’ that is an experimental group was supplied with only water containing 2% DSS from day 0 to day 7, was supplied with plain water from day 7 to day 14, and NP-011 recombinant protein of 320 μg/kg was administered once a day for 5 days starting from day 7, a total of 5 times.
Form the results in FIG. 7 and Table 1, it can be confirmed that the degrees of crypt damage, inflammation severity, and inflammation extent in the mucosa were reduced in the order of MFG-E8 160 μg/kg, NP-011 80 μg/kg, and NP-011 320 μg/kg compared with the positive control group after induction of ulcerative colitis, so that the overall degree of damage to the large intestinal mucosa was lowered.
Then, the tissue fixed with 4% paraformaldehyde was subjected to staining (Hematoxylin & Eosin stain) and histopathological examination by KP&T Co., Ltd. The pathological interpretation was made with reference to INHAND. The degrees of erosion and epithelial hyperplasia in the mucosa of the large intestinal tissue were measured for comparison of lesions in the respective animal model groups, and results thereof are shown in FIG. 11 and Table 2. (Reference-J Toxicol Pathol 2016; 29 (1 Suppl)): 1S-124S)

The test system of assay [3] is DSS-induced colitis model. Briefly: Histopathology (H&E) of large intestinal mucosa: crypt damage, inflammation severity, inflammation extent; study of FIG. 6. From the text:
First, in the case of an animal model for mice in which ulcerative colitis is induced using DSS (Dextran sulfate sodium), bloody stool, weight loss, large intestinal shrinkage, and mucosal ulcers occur, and histologically, damage occurs in large intestinal epithelial cells, so that the intestinal glands of an epithelial layer fall off without inflammation. Further, the amount of f various immune substances in the mucosa increases to cause intestinal inflammation. For this reason, DSS has been widely used to create experimental animal models. Specifically, in a DSS-induced colitis model in which 9-week-old female C57BL/6 mice were allowed to freely ingest 2% DSS, an experiment was conducted assuming that one C57BL/6 mouse ingested 5 ml of water containing 2% DSS per day. For 7 days, only water containing 2% DSS without any treatment was provided to the mice, and for 5 days after the 7th day, water without 2% DSS was provided, and simultaneously, various comparative substances, including NP-011 protein, were fed at various concentrations by injection into the caudal vein, thereby creating an animal model of inducing ulcerative colitis. […] Lastly, as shown in FIG. 6 and FIG. 10, a third experimental group 'NP-011' that is an experimental group was supplied with only water containing 2% DSS from day 0 to day 7, was supplied with plain water from day 7 to day 14, and NP-011 recombinant protein of 320 μg/kg was administered once a day for 5 days starting from day 7, a total of 5 times. First, using the animal models corresponding to the 'NTC' control group, the 'UC CONTROL' control group, the 'MFG-E8' experimental group, the 'NP-011' second experimental group, and the 'NP-011' third experimental group, for each animal model group, the cecum was removed from a large intestinal tissue, and 1 to 2 cm of the proximal and 1 cm of the anus were secured and fixed with 4% paraformaldehyde. Then, the tissue fixed with 4% paraformaldehyde was subjected to staining (Hematoxylin & Eosin stain) and histopathological examination by KP&T Co., Ltd. The pathological interpretation was made with reference to […] (International Harmonization of Nomenclature and Diagnostic Criteria for Lesions) which is an international standard toxicology glossary. The degrees of crypt damage, inflammation severity, and inflammation extent in the mucosa of the large intestinal tissue were measured for comparison in the respective animal model groups, and results thereof are shown in FIG. 7 and Table 1. (Reference-J Toxicol Pathol 2016; 29 (1 Suppl): 1S-[…])

Assay [4] concerns DSS-induced colitis model. Nature of the assay: Body weight change, study of FIG. 6 (FIG. 8, Table 3). Particulars: MFG-E8 160 μg/kg.
Excerpt: as §1, §2, §3, §4
First, using the animal models corresponding to the ‘NTC’ control group, the ‘UC CONTROL’ control group, the ‘MFG-E8’ experimental group, the ‘NP-011’ second experimental group, and the ‘NP-011’ third experimental group, body weight was measured daily for each animal model group before drug administration to reduce errors due to the administration.
In addition, increase or decrease in body weight was analyzed compared with the positive control group, and comprehensive results thereof are shown in FIG. 8 and Table 3.

Assay [5] concerns DSS-induced colitis model. Nature of the assay: Colon length, study of FIG. 6 (FIG. 9). The settings on record: MFG-E8 160 μg/kg; 3 days after the last administration. The text has this: First, in the case of an animal model for mice in which ulcerative colitis is induced using DSS (Dextran sulfate sodium), bloody stool, weight loss, large intestinal shrinkage, and mucosal ulcers occur, and histologically, damage occurs in large intestinal epithelial cells, so that the intestinal glands of an epithelial layer fall off without inflammation. Further, the amount of f various immune substances in the mucosa increases to cause intestinal inflammation. For this reason, DSS has been widely used to create experimental animal models. […]
First, using the animal models corresponding to the \NTC′ control group, the ‘UC CONTROL’ control group, the ‘MFG-E8’ experimental group, the ‘NP-011’ second experimental group, and the ‘NP-011’ third experimental group, the large intestine was extracted separately for each animal model group, the colon length was analyzed, and the results thereof are shown in FIG. 9.
Specifically, to analyze the colon length, each animal model was euthanized by gradual increase in carbon dioxide 3 days after the last administration, and the large intestine was extracted. The extracted large intestine was photographed with a length measuring device (30 cm ruler), and the obtained photograph was quantified using image J.

[6] abbreviates: MGF-E8 160 μg/kg, once a day x5 from day 7.

With Adalimumab, the “Dunnett's multiple comparisons test UC VS AD, Summary (body weight)” value in assay [1] (10 days) is “** (** P<0.01)”; in assay [1] (Day 11) it was “**** (**** P<0.0001)”; in assay [1] (Day 12), “**** (**** P<0.0001)”; in assay [1] (Day 13) it was “**** (**** P<0.0001)”. Moreover, the weight loss entry in assay [1] (Adalimumab group, Cyclosporine A group, NP-011 groups (20 to 80 μg/kg)) is “weight loss was observed”. Moreover, the “Change of original weight” value in assay [1] (Day 1) is 0.161 g; in assay [1] (Day 2), 0.237 g; in assay [1] (Day 3), 0.438 g; in assay [1] (Day 4), 0.411 g; in assay [1] (Day 5), -0.217 g; in assay [1] (Day 6), -0.846 g. The “Change of original weight” value in assay [1] (Day 7) was -1.464 g; in assay [1] (Day 8) it was -1.702 g; in assay [1] (Day 9), -1.683 g; in assay [1] (Day 10), -1.444 g; in assay [1] (Day 11) it was -0.471 g; in assay [1] (Day 12), -0.035 g. The “Change of original weight” value in assay [1] (Day 13) was -0.467 g. In assay [2] (AD 4 mg/kg), this molecule showed an Epithelial hyperplasia score of 4.2. For the same molecule, the “Erosion, mucosa” value in assay [2] (AD 4 mg/kg) came to 0.8. In addition, in assay [2] (AD 4 mg/kg, erosion + hyperplasia), the Group total average worked out at 5.0. Moreover, the “degrees of erosion and epidermal hyperplasia in the mucosa of large intestinal tissues” value in assay [2] (Adalimumab group) is on record as “reduced”.

B1: milk fat globule-EGF factor 8 (protein, UniProt Q08431 24-387, looked up)
Lactadherin: LDICSKNPCHNGGLCEEISQEVRGDVFPSYTCTCLKGYAGNHCETKCVEPLGLENGNIANSQIAASSVRVTFLGLQHWVPELARLNRAGMVNAWTPSSNDDNPWIQVNLLRRMWVTGVVTQGASRLASHEYLKAFKVAYSLNGHEFDFIHDVNKKHKEFVGNWNKNAVHVNLFETPVEAQYVRLYPTSCHTACTLRFELLGCELNGCANPLGLKNNSIPDKQITASSSYKTWGLHLFSWNPSYARLDKQGNFNAWVAGSYGNDQWLQVDLGSSKEVTGIITQGARNFGSVQFVASYKVAYSNDSANWTEYQDPRTGSSKIFPGNWDNHSHKKNLFETPILARYVRILPVAWHNRIALRLELLGC
notes: milk fat globule-EGF factor 8 (MFG-E8) protein, comparator
Regarding B1, in assay [3] (MFG-E8 160 μg/kg), the “degrees of crypt damage, inflammation severity, and inflammation extent in the mucosa compared with the positive control group” value is “reduced”. The “Crypt Damage” value in assay [3] (setting [6]) is reported as 2.9. Besides, the “Inflammation Extent” value in assay [3] (setting [6]) was determined as 1.2. The “Inflammation Severity” value in assay [3] (MGF-E8 160 μg/kg, once a day x5 from day 7, caudal vein) worked out at 1.1. In assay [3] (MGF-E8 160 μg/kg, sum of severity, extent, crypt damage), this molecule registered a Group total average of 5.2. Besides, the “Dunnett's multiple comparisons test UC VS MFG-E8, Summary (body weight)” value in assay [4] (Day 7), in assay [4] (Day 8), in assay [4] (Day 9), in assay [4] (Day 10) and in assay [4] (Day 11) was “ns” in each case. Further, the “colon length shrinkage suppression effect compared with the non-administration control group” value in assay [5] is “statistically significant increase in the colon length shrinkage suppression effect”.
